The values below come from patent publication US9493455B2, “Azaindole derivatives as inhibitors of protein kinases” (ORIBASE PHARMA, priority 2012, dated 2016).

In assay [1] the test system is HepG2. As to the kind of experiment: In vitro cell proliferation assay (MTT). The format is cell-based. The note with it: Homo sapiens, HepG2, 72 h. How it is done: (§1) Cancer cell lines (5×10^3 cells per well) or HUVEC (1×10^4 cells per well) or HRMEC (1×10^4 cells per well) were distributed in 96-well plates and incubating in duplicate with escalating concentrations (10 nM to 3 μM) of compounds for 72 hr. Cell proliferation was measured using MTT (3 [4,5-dimethylthiazol-2-yl]-2,5-diphenyltetrazolium bromide).

The test system of assay [2] is HUVEC. As to the kind of experiment: In vitro cell proliferation assay (MTT). The format is cell-based. The note with it: Homo sapiens, 72 h. On the procedure: as §1
In assay [3] the target is T1, KDR (VEGFR2) (Homo sapiens, UniProt P35968).
T1 construct: purchased Invitrogen
T1 sequence (P35968 20-1356): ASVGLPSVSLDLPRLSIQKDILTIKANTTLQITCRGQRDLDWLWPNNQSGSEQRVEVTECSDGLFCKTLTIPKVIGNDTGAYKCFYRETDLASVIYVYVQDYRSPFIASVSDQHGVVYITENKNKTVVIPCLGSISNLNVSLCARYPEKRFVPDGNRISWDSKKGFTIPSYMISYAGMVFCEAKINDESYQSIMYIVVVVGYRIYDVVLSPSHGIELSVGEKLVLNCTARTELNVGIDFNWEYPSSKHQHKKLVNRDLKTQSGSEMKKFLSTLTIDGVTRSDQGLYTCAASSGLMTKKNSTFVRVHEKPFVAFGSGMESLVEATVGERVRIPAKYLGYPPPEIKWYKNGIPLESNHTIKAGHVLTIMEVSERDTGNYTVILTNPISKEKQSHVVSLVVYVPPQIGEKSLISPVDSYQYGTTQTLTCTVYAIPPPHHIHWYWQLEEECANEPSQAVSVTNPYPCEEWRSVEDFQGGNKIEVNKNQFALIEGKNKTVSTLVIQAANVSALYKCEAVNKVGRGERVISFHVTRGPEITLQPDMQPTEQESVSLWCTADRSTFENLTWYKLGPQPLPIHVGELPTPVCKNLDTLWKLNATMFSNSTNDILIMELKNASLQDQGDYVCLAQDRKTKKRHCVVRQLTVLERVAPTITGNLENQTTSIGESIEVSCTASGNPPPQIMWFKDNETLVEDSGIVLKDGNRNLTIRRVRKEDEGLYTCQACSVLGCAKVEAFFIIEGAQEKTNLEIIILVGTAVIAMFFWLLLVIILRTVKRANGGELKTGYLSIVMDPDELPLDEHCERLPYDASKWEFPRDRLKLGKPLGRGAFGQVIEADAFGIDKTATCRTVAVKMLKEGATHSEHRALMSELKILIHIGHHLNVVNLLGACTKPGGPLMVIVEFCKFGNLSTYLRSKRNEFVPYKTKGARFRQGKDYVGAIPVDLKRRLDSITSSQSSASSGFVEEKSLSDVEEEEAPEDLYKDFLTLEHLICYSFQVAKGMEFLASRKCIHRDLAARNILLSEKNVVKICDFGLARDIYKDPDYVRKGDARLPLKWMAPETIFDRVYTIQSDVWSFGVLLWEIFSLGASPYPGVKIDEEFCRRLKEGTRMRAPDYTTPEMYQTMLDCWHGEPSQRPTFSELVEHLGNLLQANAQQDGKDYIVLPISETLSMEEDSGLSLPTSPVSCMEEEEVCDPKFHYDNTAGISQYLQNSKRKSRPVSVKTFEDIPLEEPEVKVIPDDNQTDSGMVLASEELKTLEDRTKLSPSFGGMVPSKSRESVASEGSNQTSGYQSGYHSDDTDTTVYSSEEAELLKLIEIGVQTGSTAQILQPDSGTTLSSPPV
Briefly: In vitro kinase assay (Z′-LYTE). The note with it: read-out: % of inhibition of the kinase compared to the control. The format is biochemical. On the procedure: (§2) The inhibitory activity of the compounds on several kinases including BRAF, EGFR (ErbB1), EGFR (ErbB1) T790M L858R, FGFR2, KDR (VEGFR2), PDGFRA (PDGFR alpha), SRC and other was evaluated by Invitrogen using the Z′-LYTE® technology. Briefly, the Z′-LYTE® biochemical assay employs a fluorescence-based, coupled-enzyme format and is based on the differential sensitivity of phosphorylated and non-phosphorylated peptides to proteolytic cleavage. The peptide substrate is labeled with two fluorophores—one at each end—that make up a FRET pair. A ratiometric method, which calculates the ratio (the Emission Ratio) of donor emission to acceptor emission after excitation of the donor fluorophore at 400 nm, is used to quantitate reaction progress.
(§3) The compounds are screened in 1% DMSO (final) in the well. For 10 point titrations, 3-fold serial dilutions are conducted from the starting concentration. All Peptide/Kinase Mixtures are diluted to a 2× working concentration in the appropriate Kinase Buffer. All ATP Solutions are diluted to a 4× working concentration in Kinase Buffer (50 mM HEPES pH 7.5, 0.01% BRIJ-35, 10 mM MgCl2, 1 mM EGTA). ATP Km apparent is previously determined using a Z′-LYTE® assay.
(§4) Each compound was incubated at a concentration of 100 nM (excepted to test the activity against ABL and ABL T315I for which the compounds were incubated at a concentration of 10 μM) and the tables B1 to B12 summarize the results obtained showing the inhibitory power of a compound. The inhibitory activity of OR0512 was also investigated using the same assays and the kinases for which activity was inhibited at more than 50% at the concentration of 100 nM of OR0512 are listed in the table B13.

Assay [4] deals with T2, EGFR (ErbB1) (Homo sapiens, UniProt P00533).
T2 construct: purchased Invitrogen
As to the kind of experiment: In vitro kinase assay (Z′-LYTE). The format is biochemical. As to conditions: read-out: % of inhibition of the kinase compared to the control. How it is done: as §2, §3, §4

In assay [5] the target is T3, BRAF (Homo sapiens, UniProt P15056).
T3 construct: purchased Invitrogen
As to the kind of experiment: In vitro kinase assay (Z′-LYTE). The format is biochemical. The note with it: compound 100 nM; ATP 100 μM; read-out: % of inhibition of the kinase compared to the control. On the procedure:
as §2, §3, §4

In assay [6] the target is T4, PDGFRA (PDGFR alpha) (Homo sapiens, UniProt P16234).
T4 construct: purchased Invitrogen
T4 sequence (P16234 24-1089): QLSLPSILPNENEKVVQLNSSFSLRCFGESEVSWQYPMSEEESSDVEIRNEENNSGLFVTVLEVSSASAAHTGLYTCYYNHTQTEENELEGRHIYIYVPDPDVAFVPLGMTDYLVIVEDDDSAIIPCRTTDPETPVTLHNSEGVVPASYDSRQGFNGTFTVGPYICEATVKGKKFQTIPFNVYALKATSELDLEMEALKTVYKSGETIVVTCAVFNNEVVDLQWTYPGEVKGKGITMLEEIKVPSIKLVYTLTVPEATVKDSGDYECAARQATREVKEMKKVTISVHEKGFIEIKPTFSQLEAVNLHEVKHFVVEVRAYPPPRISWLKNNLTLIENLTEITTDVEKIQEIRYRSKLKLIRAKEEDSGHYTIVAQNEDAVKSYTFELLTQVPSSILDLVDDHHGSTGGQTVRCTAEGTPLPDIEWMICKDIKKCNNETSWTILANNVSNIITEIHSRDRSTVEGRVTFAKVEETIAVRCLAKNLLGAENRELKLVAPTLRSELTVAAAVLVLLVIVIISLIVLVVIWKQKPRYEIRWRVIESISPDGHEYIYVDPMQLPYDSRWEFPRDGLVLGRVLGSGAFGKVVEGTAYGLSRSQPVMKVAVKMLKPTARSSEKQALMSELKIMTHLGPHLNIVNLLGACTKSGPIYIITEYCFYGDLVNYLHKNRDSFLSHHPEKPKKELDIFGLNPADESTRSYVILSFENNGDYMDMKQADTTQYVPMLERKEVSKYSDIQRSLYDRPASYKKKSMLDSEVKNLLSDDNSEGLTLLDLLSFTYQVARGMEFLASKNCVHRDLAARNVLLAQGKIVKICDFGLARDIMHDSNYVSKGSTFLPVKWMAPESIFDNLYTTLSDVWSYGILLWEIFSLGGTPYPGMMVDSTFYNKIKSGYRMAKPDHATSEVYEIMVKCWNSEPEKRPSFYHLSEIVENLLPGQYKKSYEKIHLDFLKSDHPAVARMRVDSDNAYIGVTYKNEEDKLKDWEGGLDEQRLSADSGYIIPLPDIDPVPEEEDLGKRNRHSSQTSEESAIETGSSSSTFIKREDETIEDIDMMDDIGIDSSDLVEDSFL
As to the kind of experiment: In vitro kinase assay (Z′-LYTE). As to conditions: read-out: % of inhibition of the kinase compared to the control. The format is biochemical. On the procedure:
as §2, §3, §4

Assay [7] deals with T5, FGFR2 (Homo sapiens, UniProt P21802).
T5 construct: purchased Invitrogen
Briefly: In vitro kinase assay (Z′-LYTE). As to conditions: read-out: % of inhibition of the kinase compared to the control. The format is biochemical. How it is done:
as §2, §3, §4

Assay [8] has as its system BxPC-3. Briefly: In vitro cell proliferation assay (MTT). The format is cell-based. As to conditions: Homo sapiens, BXPC-3, 72 h. How it is done: as §1
In assay [9] the target is T6, ABL (Homo sapiens, UniProt P00519).
T6 construct: purchased Invitrogen
Briefly: In vitro kinase assay (Z′-LYTE). The format is biochemical. The note with it: read-out: % of inhibition of the kinase compared to the control. How it is done:
as §2, §3, §4

Assay [10] deals with T7, ABL T315I (Homo sapiens, UniProt P00519, T315I).
T7 construct: purchased Invitrogen
As to the kind of experiment: In vitro kinase assay (Z′-LYTE). The format is biochemical. The note with it: read-out: % of inhibition of the kinase compared to the control. On the procedure: as §2, §3, §4

Assay [11] deals with T8, VEGFR1 (Homo sapiens, UniProt P17948).
T8 construct: purchased Invitrogen
T8 sequence (P17948 27-1338): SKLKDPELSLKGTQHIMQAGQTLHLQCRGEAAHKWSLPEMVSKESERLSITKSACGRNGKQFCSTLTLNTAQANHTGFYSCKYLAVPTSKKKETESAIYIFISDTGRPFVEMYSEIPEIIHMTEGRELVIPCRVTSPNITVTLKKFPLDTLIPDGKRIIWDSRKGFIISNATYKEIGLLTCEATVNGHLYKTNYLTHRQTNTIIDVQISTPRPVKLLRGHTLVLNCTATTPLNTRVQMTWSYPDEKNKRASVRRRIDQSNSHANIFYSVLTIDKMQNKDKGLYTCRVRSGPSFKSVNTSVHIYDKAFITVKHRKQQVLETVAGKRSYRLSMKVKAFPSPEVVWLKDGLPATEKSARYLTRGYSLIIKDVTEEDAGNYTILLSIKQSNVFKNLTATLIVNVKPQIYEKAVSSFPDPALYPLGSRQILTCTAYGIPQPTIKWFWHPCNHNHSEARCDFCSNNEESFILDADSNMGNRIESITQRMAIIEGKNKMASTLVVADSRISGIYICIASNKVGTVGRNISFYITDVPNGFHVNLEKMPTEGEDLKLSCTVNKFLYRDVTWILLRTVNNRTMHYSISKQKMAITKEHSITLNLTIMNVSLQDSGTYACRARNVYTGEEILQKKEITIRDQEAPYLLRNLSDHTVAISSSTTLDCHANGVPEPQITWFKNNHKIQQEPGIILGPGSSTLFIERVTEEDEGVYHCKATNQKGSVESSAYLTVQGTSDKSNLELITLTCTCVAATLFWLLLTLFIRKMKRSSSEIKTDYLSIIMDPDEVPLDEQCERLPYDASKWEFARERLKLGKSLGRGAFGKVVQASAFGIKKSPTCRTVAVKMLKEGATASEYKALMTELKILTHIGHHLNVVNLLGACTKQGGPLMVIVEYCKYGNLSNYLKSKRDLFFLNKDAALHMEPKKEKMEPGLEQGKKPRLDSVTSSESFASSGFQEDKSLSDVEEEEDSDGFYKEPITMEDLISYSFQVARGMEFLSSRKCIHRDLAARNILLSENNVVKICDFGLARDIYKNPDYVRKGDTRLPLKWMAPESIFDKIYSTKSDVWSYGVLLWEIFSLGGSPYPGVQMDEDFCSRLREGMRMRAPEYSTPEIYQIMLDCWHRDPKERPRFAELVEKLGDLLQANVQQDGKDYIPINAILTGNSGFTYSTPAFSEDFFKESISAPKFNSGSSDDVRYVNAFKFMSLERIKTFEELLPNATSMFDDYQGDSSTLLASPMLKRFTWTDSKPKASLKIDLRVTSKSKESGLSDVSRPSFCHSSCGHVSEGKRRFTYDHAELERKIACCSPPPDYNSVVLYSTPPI
As to the kind of experiment: In vitro kinase assay (Z′-LYTE). The format is biochemical. As to conditions: read-out: % of inhibition of the kinase compared to the control. On the procedure: as §2, §3, §4

Assay [12] deals with T9, FGFR1 (Homo sapiens, UniProt P11362).
T9 construct: purchased Invitrogen
T9 sequence (P11362 22-822): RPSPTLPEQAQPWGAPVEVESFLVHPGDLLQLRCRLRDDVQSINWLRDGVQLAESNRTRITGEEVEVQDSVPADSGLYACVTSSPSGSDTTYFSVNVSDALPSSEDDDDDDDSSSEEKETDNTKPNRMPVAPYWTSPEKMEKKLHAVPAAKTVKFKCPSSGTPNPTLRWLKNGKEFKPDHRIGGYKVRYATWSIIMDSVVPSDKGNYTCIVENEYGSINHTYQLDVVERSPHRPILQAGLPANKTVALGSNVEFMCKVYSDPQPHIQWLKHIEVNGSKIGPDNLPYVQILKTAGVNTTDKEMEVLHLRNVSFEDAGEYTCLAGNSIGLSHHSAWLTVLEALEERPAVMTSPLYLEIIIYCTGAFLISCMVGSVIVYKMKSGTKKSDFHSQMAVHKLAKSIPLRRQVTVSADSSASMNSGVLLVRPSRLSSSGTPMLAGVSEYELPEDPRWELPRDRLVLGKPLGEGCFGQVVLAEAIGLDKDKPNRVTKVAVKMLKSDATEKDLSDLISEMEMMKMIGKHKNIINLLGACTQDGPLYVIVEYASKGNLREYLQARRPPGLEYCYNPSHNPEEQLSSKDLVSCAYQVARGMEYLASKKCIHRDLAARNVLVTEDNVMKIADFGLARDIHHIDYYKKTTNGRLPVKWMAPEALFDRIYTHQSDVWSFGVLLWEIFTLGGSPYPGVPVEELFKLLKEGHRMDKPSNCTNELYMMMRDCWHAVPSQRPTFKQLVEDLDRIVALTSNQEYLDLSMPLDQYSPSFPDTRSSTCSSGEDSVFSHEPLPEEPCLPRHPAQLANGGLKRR
As to the kind of experiment: In vitro kinase assay (Z′-LYTE). The format is biochemical. As to conditions: read-out: % of inhibition of the kinase compared to the control. How it is done: as §2, §3, §4

Assay [13] addresses T10, EGFR (ErbB1) T790M L858R (Homo sapiens, UniProt P00533, L858R/T790M).
T10 construct: purchased Invitrogen
As to the kind of experiment: In vitro kinase assay (Z′-LYTE). The format is biochemical. As to conditions: read-out: % of inhibition of the kinase compared to the control. On the procedure:
as §2, §3, §4

Assay [14] addresses T11, SRC (Homo sapiens, UniProt P12931).
T11 construct: purchased Invitrogen
Briefly: In vitro kinase assay (Z′-LYTE). The format is biochemical. The note with it: read-out: % of inhibition of the kinase compared to the control. How it is done:
as §2, §3, §4

Assay [15] deals with T12, PDGFRB (Homo sapiens, UniProt P09619).
T12 construct: purchased Invitrogen
Briefly: In vitro kinase assay (Z′-LYTE). The format is biochemical. As to conditions: read-out: % of inhibition of the kinase compared to the control. How it is done: as §2, §3, §4

T11 sequence (P12931 whole entry): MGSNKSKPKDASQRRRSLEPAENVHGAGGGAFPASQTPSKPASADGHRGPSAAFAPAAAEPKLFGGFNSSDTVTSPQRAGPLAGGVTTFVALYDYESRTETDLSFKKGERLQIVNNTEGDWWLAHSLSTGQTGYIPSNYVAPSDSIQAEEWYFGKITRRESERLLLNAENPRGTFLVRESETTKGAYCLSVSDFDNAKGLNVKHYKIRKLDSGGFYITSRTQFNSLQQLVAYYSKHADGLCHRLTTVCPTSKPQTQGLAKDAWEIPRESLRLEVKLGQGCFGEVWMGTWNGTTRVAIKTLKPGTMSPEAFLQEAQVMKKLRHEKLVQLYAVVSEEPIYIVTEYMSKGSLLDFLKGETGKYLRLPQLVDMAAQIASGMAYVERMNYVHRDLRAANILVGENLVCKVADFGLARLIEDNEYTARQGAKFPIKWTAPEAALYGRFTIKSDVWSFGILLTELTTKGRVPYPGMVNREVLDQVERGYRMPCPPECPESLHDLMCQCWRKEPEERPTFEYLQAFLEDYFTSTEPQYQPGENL

A word on the EC50: it is the concentration giving half of the maximal effect. A low value points to higher potency in that assay. Broadly, the inhibition is the share of the control response that was lost under treatment. On to `COC(=O)c1cc2cc(NC(=O)c3cccc(CNC(=O)c4ccc(CN5CCN(C)CC5)c(C(F)(F)F)c4)c3)cnc2[nH]1` [OR0983], for which the EC50 in assay [1] and in assay [2] was not below 1000 nM in each case. In addition, the inhibition at 0.1 µM in [3], in [4], in assay [5], in assay [6] and in [7] was less than 50% throughout.
For `COC(=O)c1cc2cc(NCc3cccc(C(=O)Nc4cccnc4)c3)cnc2[nH]1` [OR0916], the EC50 in assay [1] and in [2] was not below 1000 nM in each case. For the same compound, the inhibition at 0.1 µM in [3], in assay [4], in assay [5], in assay [6] and in assay [7] was less than 50% in each case.
For `COC(=O)c1cc2cc(NCc3cc(NC(=O)c4cccc5c4OCC5)ccc3C)cnc2[nH]1` [OR0618], the EC50 in [8] lay in the range of 100 to 1000 nM. In addition, the inhibition at 0.1 µM in [3], in assay [4], in assay [11], in assay [12], in assay [13] and in assay [5] was less than 50% in each case. In addition, the inhibition at 0.1 µM in [6] was not below 50%; in assay [14], not below 50%; in assay [7], less than 50%; in [15] it was less than 50%. The inhibition at 10 µM is not below 50% in assay [9] and less than 50% in assay [10].
Regarding `COC(=O)c1cc2cc(NCc3cc(NC(=O)c4cc[nH]c4)ccc3C)cnc2[nH]1` [OR0975], the concentration giving a half-maximal response (EC50) in assay [1] and in [2] was not below 1000 nM throughout. The inhibition at 0.1 µM in assay [3] was less than 50%; in assay [4] it was less than 50%; in assay [5], not below 50%; in [6] it was not below 50%; in assay [7] it was less than 50%.
With `COC(=O)c1cc2cc(NCc3cc(NS(=O)(=O)c4ccc(C)cc4)ccc3C)cnc2[nH]1` [OR0595], in [8], the EC50 was not below 1000 nM. In addition, the inhibition at 0.1 µM in [3], in assay [4], in assay [11], in assay [12], in assay [13] and in assay [5] was less than 50% each time. For the same compound, the inhibition at 0.1 µM in [6], in [14], in [7] and in [15] was less than 50% each time. In addition, the inhibition at 10 µM is not below 50% in [9] and less than 50% in assay [10].
The compound `COC(=O)c1cc2cc(NC(=O)c3cc(NC(=S)c4cc(-n5cnc(C)c5)cc(C(F)(F)F)c4)ccc3C)cnc2[nH]1` [OR0643] yielded an EC50 in assay [8] not below 1000 nM. Besides, the inhibition at 0.1 µM in assay [3], in assay [4], in assay [11], in assay [12], in assay [13] and in [5] was less than 50% throughout. The inhibition at 0.1 µM in assay [6], in [14], in assay [7] and in [15] was less than 50% each time. The inhibition at 10 µM in [9] is not below 50%; in assay [10], less than 50%.
In the case of `COC(=O)c1cc2cc(NCc3cc(NC(=O)Nc4cccnc4)ccc3C)cnc2[nH]1` [OR0896], the results for the EC50 in assay [1] and in assay [2] were not below 1000 nM and 100 to 1000 nM, respectively. Further, the inhibition at 0.1 µM in [3] was less than 50%; in [4], not below 50%; in [5], not below 50%; in assay [7] it was less than 50%.
For the compound `COC(=O)c1cc2cc(NCc3cccc(C(=O)Nc4ccc(CN5CCN(C)CC5)c(C(F)(F)F)c4)c3)cnc2[nH]1` [OR0635], the EC50 in assay [1] is not below 1000 nM; in assay [2], 100 to 1000 nM. The inhibition at 0.1 µM was not below 50% in [3], less than 50% in assay [4], less than 50% in assay [5] and not below 50% in assay [7].
`COC(=O)c1cc2cc(NCc3cc(NC(=O)c4cc(N5CCN(C)CC5)cc(C(F)(F)F)c4)ccc3C)cnc2[nH]1` [OR0698]: the inhibition at 0.1 µM in assay [3] is less than 50%; in [4], not below 50%; in assay [13], less than 50%; in [5], less than 50%; in [6] it was less than 50%; in [14], not below 50%. Further, the inhibition at 0.1 µM in assay [7] is less than 50%.
With `COC(=O)c1cc2cc(NCc3cc(NC(=O)c4ccc(CN5CCN(C)CC5)c(F)c4)ccc3C)cnc2[nH]1` [OR0864], in assay [1], the EC50 is not below 1000 nM. Moreover, the inhibition at 0.1 µM in assay [3], in assay [4], in assay [5] and in [7] was not below 50% throughout.
As to `COC(=O)c1cc2cc(NCc3cc(NC(=O)c4ccc(CN5CCC(N(C)C)C5)c(F)c4)ccc3C)cnc2[nH]1` (centres unmarked) [OR0974], the EC50 in [1] and in assay [2] was not below 1000 nM throughout. Further, the inhibition at 0.1 µM in assay [3] is not below 50%; in assay [4], not below 50%; in assay [5], not below 50%; in [7] it was less than 50%.
Turning to `COC(=O)c1cc2cc(NCc3cc(NC(=O)c4ccc(-c5csc(C)n5)cc4)ccc3C)cnc2[nH]1` [OR0620], the EC50 in [8] was not below 1000 nM. The inhibition at 0.1 µM in [3] was less than 50%; in assay [4], not below 50%; in assay [11], less than 50%; in [12] it was less than 50%; in assay [13] it was less than 50%; in assay [5], less than 50%. Besides, the inhibition at 0.1 µM is not below 50% in [6], not below 50% in [14], less than 50% in assay [7] and less than 50% in assay [15]. Moreover, the results for the inhibition at 10 µM in [9] and in assay [10] were not below 50% and less than 50%, respectively.
On to `COC(=O)c1cc2cc(NCc3cccc(C(=O)NCc4cccc(C(F)(F)F)c4)c3)cnc2[nH]1` [OR1004], for which the EC50 in assay [1] and in assay [2] was not below 1000 nM each time. For the same compound, the inhibition at 0.1 µM in assay [3], in [4], in assay [5], in assay [6] and in assay [7] was less than 50% throughout.
In the case of `COC(=O)c1cc2cc(NCc3cc(NC(=O)c4ccc(CN5CCN(C)CC5)c(C(F)(F)F)c4)ccc3Cl)cnc2[nH]1` [OR0621], the inhibition at 0.1 µM in assay [3], in assay [4], in assay [11], in assay [12], in assay [13] and in assay [5] was less than 50% throughout. Besides, the inhibition at 0.1 µM in assay [6], in assay [14], in [7] and in assay [15] was less than 50% throughout. Besides, the inhibition at 10 µM in [9] and in assay [10] was not below 50% each time.
